Where two headings read alike, the source gives them in different places.
Key:
[1] = Pharmacokinetics of parent HHQ16 after single intragastric administration of compound 2 prodrugs in rats; type: in vivo, rat; conditions: HHQ16 (parent) measured in rats after single intragastric 10 mg/kg of prodrug (dose converted to HHQ16)
Description: 1. The materials and methods for oral absorption test are the same as described in example 44.
The pharmacokinetic parameters of HHQ16 measured after a single intragastric administration of 10 mg/kg of compound 2 prodrug in rats are summarized in Table 2 below.
The half-life was prolonged to varying degrees.

[2] = Solubility test in water and FaSSIF; type: physicochemical; conditions: 37° C., up to 24 hours
[3] = test system: chronic heart failure mice; assay: Pharmacodynamic comparison of LCZ696 and compound 2 in chronic heart failure mice (echocardiography); type: in vivo
Description: With EF<50%, chronic heart failure mice were selected.
The mice were detected by cardiac ultrasound after 28 days of administration.

[4] = 100 mg/kg, after 28 days of administration
[5] = Positive control 1 (LCZ696, probably 60 mg/kg), Day 0
[6] = Positive control 1 (LCZ696, probably 60 mg/kg), Day 28
[7] = Positive control 2 (LCZ696, probably 100 mg/kg), Day 0
[8] = Positive control 2 (LCZ696, probably 100 mg/kg), Day 28
[9] = chronic heart failure mice (FIG. 9)

2-(((2aR,3R,4S,5aS,5bS,7S,7aR,11aR,12aS)-9,9-difluoro-4-hydroxy-3-((2S,5S)-5-(2-hydroxypropan-2-yl)-2-methyltetrahydrofuran-2-yl)-2a,5a,8,8-tetramethyltetradecahydro-1H,12H-cyclopenta[a]cyclopropa[e]phenanthren-7-yl)oxy)-N-methyl-2-oxoethan-1-aminium Chloride [Compound 2-6]
AUC0-t [1]: 3525 ng·h/mL
Cmax [1]: 433 ng/mL
t1/2 [1]: 4.2 h

3-(((2aR,3R,4S,5aS,5bS,7S,7aR,11aR,12aS)-9,9-difluoro-4-hydroxy-3-((2S,5S)-5-(2-hydroxypropan-2-yl)-2-methyltetrahydrofuran-2-yl)-2a,5a,8,8-tetramethyltetradecahydro-1H,12H-cyclopenta[a]cyclopropa[e]phenanthren-7-yl)oxy)-3-oxopropan-1-aminium Chloride [Compound 2-1]
AUC0-t [1]: 2955 ng·h/mL
Cmax [1]: 455 ng/mL
t1/2 [1]: 3.52 h

CC(C)(O)[C@@H]1CC[C@@](C)([C@H]2[C@@H](O)C[C@@]3(C)[C@@H]4C[C@H](OC(=O)[C@@H](N)CCCCN)[C@H]5C(C)(C)C(F)(F)CC[C@@]56C[C@@]46CC[C@]23C)O1.Cl.Cl [Compound 2-26, (S)-6-(((2aR,3R,4S,5aS,5bS,7S,7aR,11aR,12aS)-9,9-difluoro-4-hydroxy-3-((2S,5S)-5-(2-hydroxypropan-2-yl)-2-methyltetrahydrofuran-2-yl)-2a,5a,8,8-tetramethyltetradecahydro-1H,12H-cyclopenta[a]cyclopropa[e]phenanthren-7-yl)oxy)-6-oxohexane-1,5-diaminium Chloride]
Solubility ([2]; FaSSIF (pH 6.5)): 6600 µg/mL
Solubility ([2]; Water): 2100 µg/mL

Br.CC(C)(O)C1CCC(C)(C2C(O)CC3(C)C4CC(OC(=O)CNC(=O)C(N)CS)C5C(C)(C)C(F)(F)CCC56CC46CCC23C)O1 [Compound 2-32, (R)-1-((2-(((2aR,3R,4S,5aS,5bS,7S,7aR,11aR,12aS)-9,9-difluoro-4-hydroxy-3-((2S,5S)-5-(2-hydroxypropan-2-yl)-2-methyltetrahydrofuran-2-yl)-2a,5a,8,8-tetramethyltetradecahydro-1H,12H-cyclopenta[a]cyclopropa[e]phenanthren-7-yl)oxy)-2-oxoethyl)amino)-3-mercapto-1-oxopropan-2-aminium bromide]
Solubility ([2]; FaSSIF (pH 6.5)): 4960 µg/mL

Br.CN(CC(=O)O[C@H]1C[C@@H]2[C@]3(CC[C@]4(C)[C@@H]([C@]5(C)CC[C@@H](C(C)(C)O)O5)[C@@H](O)C[C@@]24C)C[C@@]32CCC(F)(F)C(C)(C)[C@H]12)C(=O)[C@H](N)CC(=O)O [Compound 2-33, (R)-3-carboxy-1-((2-(((2aR,3R,4S,5aS,5bS,7S,7aR,11aR,12aS)-9,9-difluoro-4-hydroxy-3-((2S,5S)-5-(2-hydroxypropan-2-yl)-2-methyltetrahydrofuran-2-yl)-2a,5a,8,8-tetramethyltetradecahydro-1H,12H-cyclopenta[a]cyclopropa[e]phenanthren-7-yl)oxy)-2-oxoethyl)(methyl)amino)-1-oxopropan-2-aminium bromide]
Solubility ([2]; FaSSIF (pH 6.5)): 6800 µg/mL
Solubility ([2]; Water): 2100 µg/mL

CC(NC(=O)C(N)CC(N)=O)C(=O)OC1CC2C3(C)CC(O)C(C4(C)CCC(C(C)(C)O)O4)C3(C)CCC23CC32CCC(F)(F)C(C)(C)C12.Cl [Compound 2-34, (S)-4-amino-1-(((S)-1-(((2aR,3R,4S,5aS,5bS,7S,7aR,11aR,12aS)-9,9-difluoro-4-hydroxy-3-((2S,5S)-5-(2-hydroxypropan-2-yl)-2-methyltetrahydrofuran-2-yl)-2a,5a,8,8-tetramethyltetradecahydro-1H,12H-cyclopenta[a]cyclopropa[e]phenanthren-7-yl)oxy)-1-oxopropan-2-yl)amino)-1,4-di oxobutan-2-aminium chloride]
Solubility ([2]; FaSSIF (pH 6.5)): 3200 µg/mL
Solubility ([2]; Water): 1180 µg/mL

C[C@@H](N)C(=O)N[C@H](C)C(=O)O[C@H]1C[C@@H]2[C@]3(CC[C@]4(C)[C@@H]([C@]5(C)CC[C@@H](C(C)(C)O)O5)[C@@H](O)C[C@@]24C)C[C@@]32CCC(F)(F)C(C)(C)[C@H]12.I [Compound 2-35, (R)-1-(((R)-1-(((2aR,3R,4S,5aS,5bS,7S,7aR,11aR,12aS)-9,9-difluoro-4-hydroxy-3-((2 S,5S)-5-(2-hydroxypropan-2-yl)-2-methyltetrahydrofuran-2-yl)-2a,5a,8,8-tetramethyltetradecahydro-1H,12H-cyclopenta[a]cyclopropa[e]phenanthren-7-yl)oxy)-1-oxopropan-2-yl)amino)-1-oxopropan-2-aminium iodide]
Solubility ([2]; FaSSIF (pH 6.5)): 3140 µg/mL
Solubility ([2]; Water): 1350 µg/mL

CC(C)(O)C1CCC(C)(C2C(O)CC3(C)C4CC(OP(=O)([O-])O)C5C(C)(C)C(F)(F)CCC56CC46CCC23C)O1.[Na+] [Compound 3-1, Monosodium Mono((2aR,3R,4S,5aS,5bS,7S,7aR,11aR,12aS)-9,9-difluoro-4-hydroxy-3-((2S,5S)-5-(2-hydroxypropan-2-yl)-2-methyltetrahydrofuran-2-yl)-2a,5a,8,8-tetramethyltetradecahydro-1H,12H-cyclopenta[a]cyclopropa[e]phenanthren-7-yl phosphate)]
Solubility ([2]; FaSSIF (pH 6.5)): 15800 µg/mL
Solubility ([2]; Water): 11500 µg/mL

CC(C)(O)C1CCC(C)(C2C(O)CC3(C)C4CC(OP(=O)(O)O)C5C(C)(C)C(F)(F)CCC56CC46CCC23C)O1.N [Compound 3-2, Ammonium (2aR,3R,4S,5aS,5bS,7S,7aR,11aR,12aS)-9,9-difluoro-4-hydroxy-3-((2S,5S)-5-(2-hydroxypropan-2-yl)-2-methyltetrahydrofuran-2-yl)-2a,5a,8,8-tetramethyltetradecahydro-1H,12H-cyclopenta[a]cyclopropa[e]phenanthren-7-yl phosphate]
Solubility ([2]; FaSSIF (pH 6.5)): 22300 µg/mL
Solubility ([2]; Water): 12600 µg/mL

CC(C)(O)[C@@H]1CC[C@@](C)([C@H]2[C@@H](O)C[C@@]3(C)[C@@H]4C[C@H](OP(=O)(O)O)[C@H]5C(C)(C)C(F)(F)CC[C@@]56C[C@@]46CC[C@]23C)O1 [Compound 11, (2aR,3R,4S,5aS,5bS,7S,7aR,11aR,12aS)-9,9-difluoro-4-hydroxy-3-((2S,5S)-5-(2-hydroxypropan-2-yl)-2-methyltetrahydrofuran-2-yl)-2a,5a,8,8-tetramethyltetradecahydro-1H,12H-cyclopenta[a]cyclopropa[e]phenanthren-7-yl dihydrogen phosphate]
Solubility ([2]; thermodynamic from solid, FaSSIF (pH 6.5), read-out: Solubility): 3200 µg/mL
Solubility ([2]; thermodynamic from solid, Water, read-out: Solubility): 790 µg/mL

sacubitril valsartan sodium [LCZ696]
left ventricular ejection fraction EF % increased by ([3]; 60 mg/kg, after 28 days of administration): 33.14%
FS % [3, 4]: significantly increased
left ventricular ejection fraction EF % increased by [3, 4]: 45.36%
CO [3, 5]: 30.83 ± 2.77 mL/min
EF [3, 5]: 23.49 ± 3.96%
FS [3, 5]: 9.31 ± 1.8%
HR [3, 5]: 575.58 ± 11.44 times/min
CO [3, 6]: 30.17 ± 1.85 mL/min
EF [3, 6]: 31.27 ± 5.36%
FS [3, 6]: 12.93 ± 2.66%
HR [3, 6]: 531.4 ± 19.6 times/min
CO [3, 7]: 35.4 ± 3.19 mL/min
EF [3, 7]: 22.89 ± 2.06%
FS [3, 7]: 9.24 ± 0.86 %
HR [3, 7]: 553.5 ± 10.76 times/min
CO [3, 8]: 39.02 ± 4.26 mL/min
EF [3, 8]: 34.72 ± 5.06%
FS [3, 8]: 14.76 ± 2.86%
HR [3, 8]: 550.17 ± 12.72 times/min
Cardiac output per minute (CO), day 28 vs day 0 (words) [3, 9]: not statistically significant
Heart rate (HR), day 28 vs day 0 [3, 9]: no significant change
EF, day 28 vs day 0 (words) ([3]; chronic heart failure mice, p<0.0005 (FIG. 8)): significantly increased

Reference: patent publication US20220177511A1, “SERIES OF HALOGENATED TETRACYCLIC TRITERPENE DERIVATIVES AND THEIR PREPARATION AND APPLICATION” (SHANGHAI KING-X BIOTECH CO., LTD, priority 2019, published 2022)
